Results published in patent publication US4647672A, “Ascorbate 2-polyphosphate esters and method of making same” (priority 1985, dated 1987).
Like-named read-outs stand apart in the source and are kept apart here.

How the values were obtained:
[1] = system: Acid Phosphatase from Potato; test: in vitro; format: in vitro ADME
Protocol: (§1) It has also been confirmed that behavior of the 2-monophosphate ester of L-ascorbate, ASMP, towards the enzyme phosphatase is different than the behavior of the 2-triphopsphate ester, ASTP.
(§2) ^1 Enzymolysis was done at 25° by stirring 200 micromoles of
(§3) magnesium Lascorbate 2phosphate or ammonium Lascorbate 2triphosphate in
(§4) 100 ml of 0.05 M acetate buffer (pH 5.0) containing about 400 mg of
(§5) bakers' compressed yeast and 2 units of phosphatase (1 unit activity
(§6) hydrolyzes 1 μmole of pnitrophenyl phosphate at pH 4.8 and 37°)
(§7) At a given reaction time, an aliquot (5 ml) was removed, mixed with 5.0 m
(§8) of 12% trichloroacetic acid/4% metaphosphoric acid, and the mixture
(§9) filtered. An aliquot (5 ml) of the filtrate was titrated with
(§10) 2,6dichlorophenolindophenol to a pink endpoint. Blank solutions contained
(§11) all reagents except phosphatase.

in vitro [2] = format: in vitro ADME, potato; conditions: potato, ph 5.0 acetate buffer, pH 5
Protocol: as §1, §2, §3, §4, §5, §6, §7, §8, §9, §10, §11

[3] = Blank reactions without phosphatase: acid-catalyzed release of L-ascorbate in pH 5.0 acetate buffer; format: physicochemical; conditions: 0.05 m acetate buffer, 25°, read-out: L-Ascorbate Released (%), Blank; for degraded at 0.25 h: reaction time 0.25 h; for degraded at 0.5 h: reaction time 0.50 h; for degraded at 1 h: reaction time 1.0 h; for degraded at 2 h: reaction time 2.0 h; for degraded at 3 h: reaction time 3.0 h; for degraded at 4 h: reaction time 4.0 h; for degraded at 8 h: reaction time 8.0 h; for degraded at 20 h: reaction time 20.0 h; for degraded at 5 h: reaction time 5.0 h
physchem = format: physicochemical; conditions: for Stability (% Remaining) when reacted with aqueous hydrogen peroxide / remaining at 0.25 h / remaining at 1 h / remaining at 24 h / remaining at 72 h / remaining at 144 h / remaining at 192 h / remaining at 336 h: tris buffer, hydrogen peroxide; for Stability (% Remaining) when reacted with aqueous hydrogen peroxide: pH 7; for remaining at 0.25 h / remaining at 1 h / remaining at 24 h / remaining at 72 h / remaining at 144 h / remaining at 192 h / remaining at 336 h: pH 7, Stability (% Remaining) when reacted with aqueous hydrogen peroxide
Protocol: When ASTP and ASMP were treated under identical conditions (pH 7, 25° C.) with hydrogen peroxide for 8 days, 77% ASTP remained unreacted while 44% ASMP remained. After 14 days oxidation, 0% ASMP remained compared to 55% ASTP.
^1 Reaction mixture contained 0.05 mL of 30% aqueous hydrogen peroxid
and 200 micromoles of Lascorbate or its 2phosphorylated derivative in 100
ml of 0.05 TRIS buffer (pH 7.0). At a given reaction time, an aliquot (1
ml) of a reaction mixture containing the 2phosphorylated ester was dilute
10 fold with TRIS buffer at pH 7, and the uv absorbance of the mixture
read at 258 nm. To follow loss of Lascorbic acid, an aliquot (1 ml) of th
reaction mixture was diluted with 2% metaphosphoric acid, and the uv
absorbance read at 245 nm.

in vitro [4] = format: in vitro ADME, wheat; conditions: wheat, wheat flour suspension, pH 5
Protocol: (§12) When stirred with a dilute suspension of wheat flour at 25° C., ASMP was comletely hydrolyzed in 1 hr. whereas ASTP required approximately 10-20 hr. for 95% hydrolysis.
(§13) ^1 Enzymolysis and titration of Lascorbate released were done as
(§14) described in the footnote to Table I, except the phosphatase was that
(§15) present in wheat flour. Two grams of wheat flour was used in the 100 ml
(§16) enzymolysis reaction mixture.

[5] = system: phosphatase present in wheat flour; test: in vitro; format: in vitro ADME
Protocol: as §12, §13, §14, §15, §16

guinea pigs [6] = test: Guinea pig feeding study of vitamin C activity; format: in vivo; conditions: 15.4 mg per kg of body weight per day orally, equivalent to 5.0 mg of L-ascorbic acid
Protocol: English short-hair guinea pigs were housed individually in a cage and fed Purina guinea pig ration during a one-week acclimation period. The young pigs (190-250 g) were divided into four groups of 10 animals each. One group was fed a diet devoid of vitamin C (Reid-Briggs guinea pig diet, U.S. Biochemicals, Cleveland, Ohio); the second group received the same diet but supplemented with 5.0 mg of L-ascorbic acid per kg of body weight per day; the third group received 15.4 mg of purified tetrasodium L-ascorbate 2-triphosphate dihydrate (L-ascorbate 2-tri-PO4, purified) per kg of body weight per day; and the fourth group received 15.4 mg of tetra-sodium L-ascorbate 2-triphosphate dihydrate (L-ascorbate 2-tri-PO4, reaction mixture) in admixture with the by-products of the reaction mixture as set forth in Example I, except the small amount of unreacted L-ascorbic acid in the reaction mixture was destroyed by O2 -oxidation (the 15.4 mg of tetrasodium L-ascorbate 2-triphosphate dihydrate is equivalent to 5.0 mg of L-ascorbic acid). The vitamin C was administered orally with a calibrated syringe from solutions kept at 5° C., except the L-ascorbic acid solution was prepared fresh daily. The weights of the animals were recorded daily, and the arithmetic means of each group were calculated and compared in the FIGURE.

monkeys = conditions: Machlin et al; cited from earlier work
fish = fish and possibly crustacea; Halver et al 1975; cited from earlier work
guinea pigs [7] = conditions: Machlin 1976; cited from earlier work
[8] = Stabilization of L-ascorbate against autoxidation in aqueous medium at pH 7; format: physicochemical
[9] = pH 5, Table I, all reagents except phosphatase
[10] = pH 5, Table II, blank without phosphatase (wheat flour)

O=C1O[C@H]([C@@H](O)CO)C(O)=C1OP(=O)(O)O [ASMP, L-Ascorbate 2-phosphate]
rate of release of L-ascorbic acid when treated with purified phosphatase from potato (comparison in words) [1]: much faster than ASTP | metabolised at 0.25 h (in vitro [2]): 9.3% | metabolised at 0.5 h (in vitro [2]): 18.6% | metabolised at 1 h (in vitro [2]): 35.5% | metabolised at 2 h (in vitro [2]): 60.5% | metabolised at 3 h (in vitro [2]): 77.3% | metabolised at 4 h (in vitro [2]): 88.4% | metabolised at 8 h (in vitro [2]): 100% | metabolised at 20 h (in vitro [2]): 100% | degraded at 0.25 h [3, 9]: 0% | degraded at 0.5 h [3, 9]: 0% | degraded at 1 h [3, 9]: 0% | degraded at 2 h [3, 9]: 2.9% | degraded at 3 h [3, 9]: 4.6% | degraded at 4 h [3, 9]: 4.6% | degraded at 8 h [3, 9]: 8.1% | degraded at 20 h [3, 9]: ~15% | degraded at 0.25 h [3, 10]: 0% | degraded at 0.5 h [3, 10]: 0% | degraded at 1 h [3, 10]: 0% | degraded at 2 h [3, 10]: 2.9% | degraded at 3 h [3, 10]: 4.6% | degraded at 4 h [3, 10]: 4.6% | degraded at 5 h [3, 10]: 5.8% | degraded at 20 h [3, 10]: 14.5% | Stability (% Remaining) when reacted with aqueous hydrogen peroxide (physchem; 192 h): 44.1% | remaining at 0.25 h (physchem): 98.7% | remaining at 1 h (physchem): 97.1% | remaining at 24 h (physchem): 93.9% | remaining at 72 h (physchem): 77.7% | remaining at 144 h (physchem): 64.1% | remaining at 192 h (physchem): 44% | remaining at 336 h (physchem): 0% | metabolised at 0.25 h (in vitro [4]): 47.1% | metabolised at 0.5 h (in vitro [4]): 76.2% | metabolised at 1 h (in vitro [4]): 100% | metabolised at 2 h (in vitro [4]): 100% | metabolised at 3 h (in vitro [4]): 100% | metabolised at 4 h (in vitro [4]): 100% | metabolised at 5 h (in vitro [4]): 100% | metabolised at 20 h (in vitro [4]): 100% | time to complete hydrolysis [5]: 1 h

O.O.O=C1O[C@H]([C@@H](O)CO)C([O-])=C1OP(=O)([O-])OP(=O)([O-])OP(=O)([O-])O.[Na+].[Na+].[Na+].[Na+] [L-ascorbate 2-tri-PO4, purified, tetrasodium L-ascorbate 2-triphosphate dihydrate]
growth rate (mean body weight) compared with group fed equivalent L-ascorbic acid (guinea pigs [6]): grew at a rate equal to that of the group fed an equivalent amount of L-ascorbic acid

O=C1O[C@H]([C@@H](O)CO)C(O)=C1OS(=O)(=O)O [2-sulfate ester]
vitamin C activity (monkeys): not an active source of vitamin C | vitamin C activity (fish): it is in fish | vitamin C activity (guinea pigs [7]): not an active source of vitamin C

O=C1O[C@H]([C@@H](O)CO)C(O)=C1OP(=O)(O)OP(=O)(O)OP(=O)(O)O [ASTP, L-ascorbate 2-triphosphate]
stabilization of L-ascorbate against autoxidation by the substance [8]: L-ascorbate is stabilized against autoxidation by ASTP | metabolised at 0.25 h (in vitro [2]): 0% | metabolised at 0.5 h (in vitro [2]): 0% | metabolised at 1 h (in vitro [2]): 0% | metabolised at 2 h (in vitro [2]): 0% | metabolised at 3 h (in vitro [2]): 0.4% | metabolised at 4 h (in vitro [2]): 0.8% | metabolised at 8 h (in vitro [2]): 3.5% | metabolised at 20 h (in vitro [2]): 8.5% | degraded at 0.25 h [3, 9]: 0% | degraded at 0.5 h [3, 9]: 0% | degraded at 1 h [3, 9]: 0% | degraded at 2 h [3, 9]: 0% | degraded at 3 h [3, 9]: 0% | degraded at 4 h [3, 9]: 0% | degraded at 8 h [3, 9]: 0% | degraded at 20 h [3, 9]: 0% | degraded at 0.25 h [3, 10]: 0% | degraded at 0.5 h [3, 10]: 0% | degraded at 1 h [3, 10]: 0% | degraded at 2 h [3, 10]: 0% | degraded at 3 h [3, 10]: 0% | degraded at 4 h [3, 10]: 0% | degraded at 5 h [3, 10]: 0% | degraded at 20 h [3, 10]: 0% | stability to oxidation compared with ASMP (physchem): more stable to oxidation than ASMP | Stability (% Remaining) when reacted with aqueous hydrogen peroxide (physchem; 336 h): 55.2% | remaining at 0.25 h (physchem): 98.6% | remaining at 1 h (physchem): 98.3% | remaining at 24 h (physchem): 96.7% | remaining at 72 h (physchem): 87.6% | remaining at 144 h (physchem): 83.3% | remaining at 192 h (physchem): 77% | remaining at 336 h (physchem): 55% | metabolised at 0.25 h (in vitro [4]): 0% | metabolised at 0.5 h (in vitro [4]): 1.2% | metabolised at 1 h (in vitro [4]): 3.5% | metabolised at 2 h (in vitro [4]): 29.6% | metabolised at 3 h (in vitro [4]): 65.8% | metabolised at 4 h (in vitro [4]): 86.9% | metabolised at 5 h (in vitro [4]): 93.1% | metabolised at 20 h (in vitro [4]): 95% | time required for 95% hydrolysis [5]: 10 to 20 h

O=C1O[C@H]([C@@H](O)CO)C(O)=C1O [Parent Compd, L-ascorbic acid]
time to destruction by hydrogen peroxide (physchem; pH 7, 25° C.): destroyed in less than one hour | remaining at 0.25 h (physchem): 56.9% | remaining at 1 h (physchem): 0% | remaining at 24 h (physchem): 0% | remaining at 72 h (physchem): 0% | remaining at 144 h (physchem): 0% | remaining at 192 h (physchem): 0% | remaining at 336 h (physchem): 0%
